Source: ChEMBL document CHEMBL5154670, “Discovery of selective irreversible inhibitors of B-Lymphoid tyrosine kinase (BLK)” (Eur J Med Chem, 2022)
Activity calls are given as the source filed them. The rule behind the calls is not given here.

Legend:
[1] = biological target: T1, Tyrosine-protein kinase BTK (Homo sapiens, UniProt Q06187); test: Inhibition of wild type N-terminal GST tagged BTK (unknown origin) (2 to 659 residues) expressed in sf21 insect cell using TK as substrate incubated for 50 mins in presence of ATP by HTRF assay
[2] = biological target: T1, Tyrosine-protein kinase BTK; test: Inhibition of (S)-3-(3-(5-acrylamido-6-(3-(5-(2-methyl-5-(3-(trifluoromethyl)benzamido)benzamido)pyrimidin-2-ylamino)phenylamino)-6-oxohexylamino)-3-oxopropyl)-5,5-difluoro-7,9-dimethyl-5H-dipyrrolo[1,2-c:1',2'-f][1,3,2]diazaborinin-4-ium-5-uide binding to BTK in human NAMALVA cells preincubated for 1 hr followed by compound washout for three times and treated with probe for 1 hr by competitive labeling assay; format: cell-based
[3] = biological target: T1, Tyrosine-protein kinase BTK; test: Time dependent inhibition of wild type N-terminal GST tagged BTK (unknown origin) (2 to 659 residues) expressed in sf21 insect cell using TK as substrate in presence of ATP by HTRF assay; settings: time 50.0 min, TDE = time-dependent effect
[4] = biological target: Tyrosine-protein kinase CSK (Homo sapiens) (UniProt P41240); test: Inhibition of CSK (unknown origin) relative to control; settings: concentration not given here
Homo sapiens = species on record: Homo sapiens; test: Selectivity ratio, ratio of IC50 for inhibition of BTK (unknown origin) to IC50 for inhibition of BLK (unknown origin)
[5] = biological target: Mitogen-activated protein kinase 14 (Homo sapiens) (UniProt Q16539); test: Inhibition of p38alpha (unknown origin) relative to control; settings: concentration not given here
[6] = biological target: T2, Tyrosine-protein kinase Blk (Homo sapiens, UniProt P51451); test: Inhibition of wild type N-terminal GST tagged BLK (unknown origin) (1 to 505 residues) expressed in sf21 insect cell using TK as substrate incubated for 50 mins in presence of ATP by HTRF assay
Target sequence in this assay (P51451 whole entry, the tested form may be a part): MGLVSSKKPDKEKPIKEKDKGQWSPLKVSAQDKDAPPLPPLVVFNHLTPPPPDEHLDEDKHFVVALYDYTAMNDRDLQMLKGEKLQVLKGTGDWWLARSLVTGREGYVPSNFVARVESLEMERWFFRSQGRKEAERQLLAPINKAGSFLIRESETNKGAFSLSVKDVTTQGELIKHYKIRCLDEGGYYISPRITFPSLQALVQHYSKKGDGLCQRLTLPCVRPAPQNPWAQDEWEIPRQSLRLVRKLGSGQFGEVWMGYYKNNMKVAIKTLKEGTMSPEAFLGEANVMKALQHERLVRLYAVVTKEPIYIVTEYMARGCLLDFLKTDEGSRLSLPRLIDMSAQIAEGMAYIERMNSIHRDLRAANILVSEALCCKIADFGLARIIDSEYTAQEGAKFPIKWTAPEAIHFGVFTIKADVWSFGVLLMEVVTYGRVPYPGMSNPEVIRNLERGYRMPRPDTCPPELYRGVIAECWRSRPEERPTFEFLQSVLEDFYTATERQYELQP

[7] = biological target: Tyrosine-protein kinase Lyn (Homo sapiens) (UniProt P07948); test: Inhibition of LYN (unknown origin) relative to control; settings: concentration not given here
[8] = biological target: T2, Tyrosine-protein kinase Blk; test: Inhibition of (S)-3-(3-(5-acrylamido-6-(3-(5-(2-methyl-5-(3-(trifluoromethyl)benzamido)benzamido)pyrimidin-2-ylamino)phenylamino)-6-oxohexylamino)-3-oxopropyl)-5,5-difluoro-7,9-dimethyl-5H-dipyrrolo[1,2-c:1',2'-f][1,3,2]diazaborinin-4-ium-5-uide binding to BLK in human NAMALVA cells preincubated for 1 hr followed by compound washout for three times and treated with probe for 1 hr by competitive labeling assay; format: cell-based
Target sequence in this assay (P51451 whole entry, the tested form may be a part): as above

[9] = biological target: T2, Tyrosine-protein kinase Blk; test: Inhibition of (S)-3-(3-(5-acrylamido-6-(3-(5-(2-methyl-5-(3-(trifluoromethyl)benzamido)benzamido)pyrimidin-2-ylamino)phenylamino)-6-oxohexylamino)-3-oxopropyl)-5,5-difluoro-7,9-dimethyl-5H-dipyrrolo[1,2-c:1',2'-f][1,3,2]diazaborinin-4-ium-5-uide binding to wild type BLK over expressed in HEK293 cells preincubated for 1 hr followed by compound washout for three times and treated with probe for 1 hr by competitive labeling assay; format: cell-based
Target sequence in this assay (P51451 2-505 limits assumed): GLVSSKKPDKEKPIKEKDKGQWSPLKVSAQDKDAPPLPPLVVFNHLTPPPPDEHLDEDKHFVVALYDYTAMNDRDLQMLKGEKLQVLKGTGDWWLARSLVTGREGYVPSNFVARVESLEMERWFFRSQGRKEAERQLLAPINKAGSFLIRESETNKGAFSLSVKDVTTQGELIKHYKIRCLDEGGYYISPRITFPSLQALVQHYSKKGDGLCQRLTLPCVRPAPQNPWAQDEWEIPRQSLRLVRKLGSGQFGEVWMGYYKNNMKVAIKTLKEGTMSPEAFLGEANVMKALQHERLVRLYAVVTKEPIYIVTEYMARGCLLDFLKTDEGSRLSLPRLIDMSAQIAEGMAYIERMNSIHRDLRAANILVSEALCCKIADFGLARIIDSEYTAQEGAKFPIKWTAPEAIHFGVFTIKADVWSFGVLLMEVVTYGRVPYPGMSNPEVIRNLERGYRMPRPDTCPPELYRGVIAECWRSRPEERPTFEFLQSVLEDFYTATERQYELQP

HEK293 = test: Inhibition of (S)-3-(3-(5-acrylamido-6-(3-(5-(2-methyl-5-(3-(trifluoromethyl)benzamido)benzamido)pyrimidin-2-ylamino)phenylamino)-6-oxohexylamino)-3-oxopropyl)-5,5-difluoro-7,9-dimethyl-5H-dipyrrolo[1,2-c:1',2'-f][1,3,2]diazaborinin-4-ium-5-uide binding to BLK C319A mutant over expressed in HEK293 cells preincubated for 1 hr followed by compound washout for three times and treated with probe for 1 hr by competitive labeling assay; format: cell-based; settings: Homo sapiens
[10] = biological target: T2, Tyrosine-protein kinase Blk; test: Inhibition of BLK (unknown origin) at 0.3 uM relative to control
Target sequence in this assay (P51451 2-505 limits assumed): as above

TMD8 = test: Antiproliferative activity against human TMD8 cells assessed as cell growth inhibition incubated for 72 hrs by celltiter-glo luminescent cell viability assay; format: functional
OCI-Ly7 = test: Antiproliferative activity against human OCILY7 cells assessed as cell growth inhibition incubated for 72 hrs by celltiter-glo luminescent cell viability assay; format: functional
A-375 = test: Antiproliferative activity against human A-375 cells assessed as cell growth inhibition incubated for 72 hrs by celltiter-glo luminescent cell viability assay; format: functional
[11] = biological target: Receptor tyrosine-protein kinase erbB-2 (Homo sapiens) (UniProt P04626); test: Inhibition of HER2 (unknown origin) at 0.3 uM relative to control
[12] = Antiproliferative activity against human HBL1 cells assessed as cell growth inhibition incubated for 72 hrs by celltiter-glo luminescent cell viability assay; format: functional
[13] = Antiproliferative activity against HEK293 cells assessed as cell growth inhibition incubated for 72 hrs by celltiter-glo luminescent cell viability assay; format: toxicity, cell-based; settings: human
A549 = test: Antiproliferative activity against human A549 cells assessed as cell growth inhibition incubated for 72 hrs by celltiter-glo luminescent cell viability assay; format: functional
MDA-MB-453 = test: Antiproliferative activity against human MDA-MB-453 cells assessed as cell growth inhibition incubated for 72 hrs by celltiter-glo luminescent cell viability assay; format: functional
DOHH-2 [14] = test: Downregulation of CDK2 expression in human DOHH-2 cells at 0.1 to 0.3 uM incubated for 24 hrs by Western blot analysis; format: functional, cell-based; settings: dose 0.1-0.3 µM
MOLT-4 = test: Antiproliferative activity against human MOLT-4 cells assessed as cell growth inhibition incubated for 72 hrs by celltiter-glo luminescent cell viability assay; format: functional
[15] = biological target: Tyrosine-protein kinase Tec (Homo sapiens) (UniProt P42680); test: Inhibition of TEC (unknown origin) at 0.3 uM relative to control
A-431 = test: Antiproliferative activity against human A-431 cells assessed as cell growth inhibition incubated for 72 hrs by celltiter-glo luminescent cell viability assay; format: functional
[16] = Antiproliferative activity against human PBMC cells assessed as cell growth inhibition incubated for 72 hrs by celltiter-glo luminescent cell viability assay; format: toxicity, cell-based
[17] = biological target: Cytoplasmic tyrosine-protein kinase BMX (Homo sapiens) (UniProt P51813); test: Inhibition of BMX (unknown origin) at 0.3 uM relative to control
Pfeiffer = test: Antiproliferative activity against human Pfeiffer cells assessed as cell growth inhibition incubated for 72 hrs by celltiter-glo luminescent cell viability assay; format: functional
[18] = biological target: T2, Tyrosine-protein kinase Blk; test: Irreversible inhibition of wild type N-terminal GST tagged BLK (unknown origin) (1 to 505 residues) expressed in sf21 insect cell at 3 uM incubated for 4 hrs and measured after 48 hrs dialysis
Target sequence in this assay (P51451 2-505 limits assumed): as above

[19] = biological target: Receptor tyrosine-protein kinase erbB-4 (Homo sapiens) (UniProt Q15303); test: Inhibition of HER4 (unknown origin) at 0.3 uM relative to control
DOHH-2 [20] = test: Antiproliferative activity against human DOHH-2 cells assessed as cell growth inhibition incubated for 72 hrs by celltiter-glo luminescent cell viability assay; format: functional
[21] = Downregulation of CDK2 expression in human SU-DHL-6 cells at 0.3 uM preincubated for 1 hr followed by compound washout for 11 hrs and further incubated for 1 hr with compound followed by second washout for 11hrs by Western blot analysis; format: functional; settings: time 2 hrs
SU-DHL-6 [22] = test: Downregulation of CDK2 expression in human SU-DHL-6 cells at 0.3 uM incubated for 24 hrs by Western blot analysis; format: functional, cell-based
SU-DHL-6 [23] = test: Antiproliferative activity against human SU-DHL-6 cells assessed as cell growth inhibition incubated for 72 hrs by celltiter-glo luminescent cell viability assay; format: functional
[24] = biological target: Epidermal growth factor receptor (Homo sapiens) (UniProt P00533); test: Inhibition of EGFR (unknown origin) at 0.3 uM relative to control
[25] = biological target: T2, Tyrosine-protein kinase Blk; test: Inhibition of BLK in goat anti-human IgM antibody stimulated human Ramos cells assessed as BLK autophosphorylation at Tyr 389 residue at 0.3 uM preincubated for 1 hr followed by compound washout for 2 hrs and antibody stimulation by Western blot analysis; format: cell-based
Target sequence in this assay (P51451 2-505 limits assumed): as above

[26] = biological target: Tyrosine-protein kinase TXK (Homo sapiens) (UniProt P42681); test: Inhibition of TXK (unknown origin) at 0.3 uM relative to control
[27] = biological target: T1, Tyrosine-protein kinase BTK; test: Inhibition of BTK in goat anti-human IgM antibody stimulated human Ramos cells assessed as PLCgamma2 phosphorylation preincubated for 1 hr followed by antibody stimulation by Western blot analysis; format: cell-based
HCT-116 = test: Antiproliferative activity against human HCT-116 cells assessed as cell growth inhibition incubated for 72 hrs by celltiter-glo luminescent cell viability assay; format: functional
SU-DHL10 = test: Antiproliferative activity against human SU-DHL-10 cells assessed as cell growth inhibition incubated for 72 hrs by celltiter-glo luminescent cell viability assay; format: functional
SU-DHL-6 [28] = test: Downregulation of CDK2 expression in human SU-DHL-6 cells at 0.1 to 0.3 uM incubated for 24 hrs by Western blot analysis; format: functional, cell-based; settings: dose 0.1-0.3 µM
[29] = biological target: T1, Tyrosine-protein kinase BTK; test: Inhibition of BTK (unknown origin) at 0.3 uM relative to control
[30] = biological target: T1, Tyrosine-protein kinase BTK; test: Inhibition of BTK in goat anti-human IgM antibody stimulated human Ramos cells assessed as BTK autophosphorylation at […] residue preincubated for 1 hr followed by antibody stimulation by Western blot analysis; format: cell-based
[31] = biological target: Tyrosine-protein kinase ITK/TSK (Homo sapiens) (UniProt Q08881); test: Inhibition of ITK (unknown origin) at 0.3 uM relative to control
Jurkat = test: Antiproliferative activity against human Jurkat cells assessed as cell growth inhibition incubated for 72 hrs by celltiter-glo luminescent cell viability assay; format: functional

T1 sequence (Q06187 whole entry, the tested form may be a part): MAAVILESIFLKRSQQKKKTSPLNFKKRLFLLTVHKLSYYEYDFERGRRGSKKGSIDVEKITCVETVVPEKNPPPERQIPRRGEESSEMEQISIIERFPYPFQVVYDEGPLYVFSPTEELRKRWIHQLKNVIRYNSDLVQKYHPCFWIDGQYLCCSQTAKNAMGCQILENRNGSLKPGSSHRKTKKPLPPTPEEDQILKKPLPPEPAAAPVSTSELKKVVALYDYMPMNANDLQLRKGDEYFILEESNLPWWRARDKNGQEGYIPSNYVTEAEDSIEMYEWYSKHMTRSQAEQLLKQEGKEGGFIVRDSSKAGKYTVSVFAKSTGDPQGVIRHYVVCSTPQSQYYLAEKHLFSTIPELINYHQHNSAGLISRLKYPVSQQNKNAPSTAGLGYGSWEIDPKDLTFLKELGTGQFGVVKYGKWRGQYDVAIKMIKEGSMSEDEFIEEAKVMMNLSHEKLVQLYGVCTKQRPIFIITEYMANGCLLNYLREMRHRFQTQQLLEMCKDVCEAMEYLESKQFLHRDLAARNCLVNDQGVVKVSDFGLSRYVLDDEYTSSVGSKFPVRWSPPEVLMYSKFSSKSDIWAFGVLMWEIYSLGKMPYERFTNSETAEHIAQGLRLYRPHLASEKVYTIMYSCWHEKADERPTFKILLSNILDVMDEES
Epidermal growth factor receptor (Homo sapiens), sequence (P00533 whole entry): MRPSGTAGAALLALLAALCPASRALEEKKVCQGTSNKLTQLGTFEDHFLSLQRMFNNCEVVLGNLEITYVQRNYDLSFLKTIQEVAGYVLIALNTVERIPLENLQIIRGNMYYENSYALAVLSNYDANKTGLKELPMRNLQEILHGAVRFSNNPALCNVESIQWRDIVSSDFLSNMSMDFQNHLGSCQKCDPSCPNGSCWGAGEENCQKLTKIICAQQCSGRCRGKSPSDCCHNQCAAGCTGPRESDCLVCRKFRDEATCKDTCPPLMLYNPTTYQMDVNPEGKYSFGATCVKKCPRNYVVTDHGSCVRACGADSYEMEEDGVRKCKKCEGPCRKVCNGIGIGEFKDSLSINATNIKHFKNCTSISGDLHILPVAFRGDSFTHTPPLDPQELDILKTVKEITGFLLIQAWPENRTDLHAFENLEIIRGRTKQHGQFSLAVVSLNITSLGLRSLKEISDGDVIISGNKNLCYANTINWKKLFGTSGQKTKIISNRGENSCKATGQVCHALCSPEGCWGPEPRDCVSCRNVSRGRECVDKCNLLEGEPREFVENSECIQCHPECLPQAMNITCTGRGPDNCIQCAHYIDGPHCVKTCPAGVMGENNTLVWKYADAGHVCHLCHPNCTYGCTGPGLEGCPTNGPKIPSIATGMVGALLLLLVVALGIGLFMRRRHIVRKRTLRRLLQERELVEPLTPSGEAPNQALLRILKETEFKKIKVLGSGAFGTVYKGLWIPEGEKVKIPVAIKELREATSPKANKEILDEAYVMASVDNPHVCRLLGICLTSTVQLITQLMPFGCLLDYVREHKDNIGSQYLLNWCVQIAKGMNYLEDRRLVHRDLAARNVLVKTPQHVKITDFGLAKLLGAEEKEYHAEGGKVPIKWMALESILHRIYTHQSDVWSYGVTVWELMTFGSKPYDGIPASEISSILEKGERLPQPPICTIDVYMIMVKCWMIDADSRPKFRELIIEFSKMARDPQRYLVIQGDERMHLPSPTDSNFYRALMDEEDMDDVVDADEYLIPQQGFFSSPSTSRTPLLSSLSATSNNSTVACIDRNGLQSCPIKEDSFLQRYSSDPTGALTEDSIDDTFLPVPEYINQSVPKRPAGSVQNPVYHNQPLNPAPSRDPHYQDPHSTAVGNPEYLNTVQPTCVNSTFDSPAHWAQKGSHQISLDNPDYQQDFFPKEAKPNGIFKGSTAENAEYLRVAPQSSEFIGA
Mitogen-activated protein kinase 14 (Homo sapiens), sequence (Q16539 whole entry, the tested form may be a part): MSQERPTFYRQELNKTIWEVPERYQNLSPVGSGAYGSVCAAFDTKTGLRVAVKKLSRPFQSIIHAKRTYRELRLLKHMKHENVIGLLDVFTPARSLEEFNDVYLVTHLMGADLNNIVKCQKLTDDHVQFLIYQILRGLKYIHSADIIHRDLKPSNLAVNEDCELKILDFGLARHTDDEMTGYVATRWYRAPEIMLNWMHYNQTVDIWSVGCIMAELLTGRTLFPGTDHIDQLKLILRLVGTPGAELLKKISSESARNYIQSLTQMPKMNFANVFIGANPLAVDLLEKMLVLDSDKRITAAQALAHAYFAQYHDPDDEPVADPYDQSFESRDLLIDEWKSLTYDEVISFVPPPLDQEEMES
Cytoplasmic tyrosine-protein kinase BMX (Homo sapiens), sequence (P51813 whole entry): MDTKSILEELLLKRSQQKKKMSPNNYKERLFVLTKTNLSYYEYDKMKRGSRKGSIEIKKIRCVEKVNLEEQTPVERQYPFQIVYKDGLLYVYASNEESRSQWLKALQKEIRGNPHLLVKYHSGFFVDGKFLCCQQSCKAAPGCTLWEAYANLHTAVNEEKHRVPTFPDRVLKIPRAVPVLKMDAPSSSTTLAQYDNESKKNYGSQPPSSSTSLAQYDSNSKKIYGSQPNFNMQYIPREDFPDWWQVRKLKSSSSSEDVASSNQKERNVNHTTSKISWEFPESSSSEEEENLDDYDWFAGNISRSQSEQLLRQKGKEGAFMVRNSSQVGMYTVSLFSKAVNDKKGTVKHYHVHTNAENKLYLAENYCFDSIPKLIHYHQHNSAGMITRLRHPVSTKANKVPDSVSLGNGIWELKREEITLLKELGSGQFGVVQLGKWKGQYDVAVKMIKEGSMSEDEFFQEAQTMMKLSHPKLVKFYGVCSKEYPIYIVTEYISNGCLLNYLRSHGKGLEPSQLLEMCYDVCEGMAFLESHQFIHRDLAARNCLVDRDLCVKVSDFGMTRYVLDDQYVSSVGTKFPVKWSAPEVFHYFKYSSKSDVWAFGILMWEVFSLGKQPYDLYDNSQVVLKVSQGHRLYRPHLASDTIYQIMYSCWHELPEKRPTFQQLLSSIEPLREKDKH
Tyrosine-protein kinase CSK (Homo sapiens), sequence (P41240 2-450 limits assumed): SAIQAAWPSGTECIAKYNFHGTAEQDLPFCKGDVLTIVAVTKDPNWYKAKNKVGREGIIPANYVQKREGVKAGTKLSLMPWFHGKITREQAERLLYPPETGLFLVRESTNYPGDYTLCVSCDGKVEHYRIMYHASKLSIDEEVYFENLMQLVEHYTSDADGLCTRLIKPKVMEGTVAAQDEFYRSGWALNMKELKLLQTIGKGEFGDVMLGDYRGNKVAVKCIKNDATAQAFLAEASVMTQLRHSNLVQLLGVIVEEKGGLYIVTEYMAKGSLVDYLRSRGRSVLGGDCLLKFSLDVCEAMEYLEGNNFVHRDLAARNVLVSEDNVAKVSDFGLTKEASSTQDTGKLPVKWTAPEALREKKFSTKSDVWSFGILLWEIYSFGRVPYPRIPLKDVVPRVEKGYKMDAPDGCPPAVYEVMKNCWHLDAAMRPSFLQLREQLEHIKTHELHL
Tyrosine-protein kinase Lyn (Homo sapiens), sequence (P07948 2-512 limits assumed): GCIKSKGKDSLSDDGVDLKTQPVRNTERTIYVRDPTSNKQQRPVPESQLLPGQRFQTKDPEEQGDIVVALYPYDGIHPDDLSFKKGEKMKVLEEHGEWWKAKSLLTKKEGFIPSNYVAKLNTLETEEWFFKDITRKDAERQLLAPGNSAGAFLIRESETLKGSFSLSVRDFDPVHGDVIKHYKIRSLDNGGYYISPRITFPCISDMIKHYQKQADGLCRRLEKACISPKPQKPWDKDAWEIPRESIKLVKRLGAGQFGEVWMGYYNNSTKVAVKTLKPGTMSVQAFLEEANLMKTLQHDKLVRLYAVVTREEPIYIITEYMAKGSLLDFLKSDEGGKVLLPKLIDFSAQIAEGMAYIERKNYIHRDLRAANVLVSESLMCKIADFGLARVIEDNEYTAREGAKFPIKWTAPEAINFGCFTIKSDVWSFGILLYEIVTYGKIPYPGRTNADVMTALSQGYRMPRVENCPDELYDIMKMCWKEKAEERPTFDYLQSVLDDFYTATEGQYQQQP

C=CC(=O)NCCC(=O)Nc1cccc(Nc2ncc(NC(=O)c3cc(NC(=O)c4ccc5cnccc5c4)ccc3C)cn2)c1
IC50 [1]: 388 nM

Cc1ccc(NC(=O)c2ccc3ccccc3c2)cc1C(=O)Nc1cnc(Nc2cccc(N)c2)nc1
IC50 [1]: 78.8 nM

Cc1ccc(NC(=O)c2ccc3cc4ccccc4cc3c2)cc1C(=O)Nc1cnc(Nc2cccc(N)c2)nc1
IC50 [1]: 319 nM

Cc1ccc(NC(=O)CC23CC4CC(CC(C4)C2)C3)cc1C(=O)Nc1cnc(Nc2cccc(N)c2)nc1
IC50 [1]: 338 nM

Cc1ccc(NC(=O)c2cccc(-c3cccnc3)c2)cc1C(=O)Nc1cnc(Nc2cccc(N)c2)nc1
IC50 [1]: 227 nM

C=CC(=O)Nc1cccc(Nc2ncc(NC(=O)c3cc(NC(=O)c4ccc5cnccc5c4)ccc3C)cn2)c1
IC50 [1]: 56 nM | IC50 [2]: 110 nM | inhibition [3]: Tde

COc1ccc2cc(C(=O)Nc3ccc(C)c(C(=O)Nc4cnc(Nc5cccc(N)c5)nc4)c3)ccc2c1
IC50 [1]: 63.8 nM

Cc1ccc(NC(=O)c2ccc3cnccc3c2)cc1C(=O)Nc1cnc(Nc2cccc(NC3CCN(C(=O)CF)CC3)c2)nc1
IC50 [1]: 63.4 nM

C=CC(=O)N1CCC(Nc2cccc(Nc3ncc(NC(=O)c4cc(NC(=O)c5ccc6cnccc6c5)ccc4C)cn3)c2)CC1
inhibition [4]: > 80% | Ratio IC50 (Homo sapiens): 6.6 | inhibition [5]: > 80% | IC50 [6]: 8.8 nM | IC50 [1]: 58 nM | inhibition [7]: > 80% | IC50 [8]: 5.5 nM

Cc1ccc(NC(=O)c2ccc3cnccc3c2)cc1C(=O)Nc1cnc(Nc2cccc(N)c2)nc1
IC50 [1]: 407 nM

Cc1ccc(NC(=O)c2cccc(-c3ccco3)c2)cc1C(=O)Nc1cnc(Nc2cccc(N)c2)nc1
IC50 [1]: 360 nM

C=CC(=O)Nc1cccc(Nc2ncc(NC(=O)c3cc(NC(=O)c4cccc(C(F)(F)F)c4)ccc3C)cn2)c1
inhibition [9]: Active | IC50 [6]: 18.8 nM | inhibition (HEK293): Active | IC50 [8]: 15 nM

Cc1ccc(NC(=O)c2ccc3cc(Br)ccc3c2)cc1C(=O)Nc1cnc(Nc2cccc(N)c2)nc1
IC50 [1]: 145 nM

Cc1ccc(NC(=O)c2ccc3ncccc3c2)cc1C(=O)Nc1cnc(Nc2cccc(N)c2)nc1
IC50 [1]: 410 nM

Cc1ccc(NC(=O)c2ccc3cnccc3c2)cc1C(=O)Nc1cnc(Nc2cccc(NC3CCN(C(=O)/C=C/CN(C)C)CC3)c2)nc1
inhibition [10]: 101% | Ratio IC50 (Homo sapiens): 34.2 | GI50 (TMD8): 64 nM | GI50 (OCI-Ly7): 20 nM | GI50 (A-375): > 30000 nM | inhibition [11]: 19% | GI50 [12]: 1340 nM | GI50 at 72 h [13]: > 30000 nM | GI50 (A549): > 30000 nM | GI50 (MDA-MB-453): > 30000 nM | Activity (DOHH-2 [14]): Active | GI50 (MOLT-4): 18800 nM | inhibition [15]: 19% | GI50 (A-431): > 30000 nM | GI50 at 72 h [16]: > 30000 nM | inhibition [17]: 99% | GI50 (Pfeiffer): 2180 nM | IC50 [6]: 5.9 nM | inhibition [18]: Active | inhibition [19]: 94% | GI50 (DOHH-2 [20]): 16 nM | IC50 [1]: 202 nM | Activity [21]: 55% | Activity (SU-DHL-6 [22]): Active | GI50 (SU-DHL-6 [23]): 130 nM | inhibition [24]: 97% | inhibition [25]: Active | inhibition [26]: 83% | EC50 [27]: > 1000 nM | GI50 (HCT-116): 8100 nM | GI50 (SU-DHL10): 560 nM | Activity (SU-DHL-6 [28]): Active | inhibition [29]: 100% | EC50 [30]: > 1000 nM | inhibition [31]: 5% | IC50 [8]: 12 nM | GI50 (Jurkat): 10900 nM

Cc1ccc(NC(=O)c2ccc3cc(O)ccc3c2)cc1C(=O)Nc1cnc(Nc2cccc(N)c2)nc1
IC50 [1]: 212 nM

Cc1ccc(NC(=O)OCc2ccccc2)cc1C(=O)Nc1cnc(Nc2cccc(N)c2)nc1
IC50 [1]: 444 nM

Cc1ccc(NC(=O)c2ccc(-c3ccccc3)cc2)cc1C(=O)Nc1cnc(Nc2cccc(N)c2)nc1
IC50 [1]: 255 nM

Cc1ccc(NC(=O)c2cccc(-c3ccc(F)cc3)c2)cc1C(=O)Nc1cnc(Nc2cccc(N)c2)nc1
IC50 [1]: 694 nM

Cc1ccc(NC(=O)c2cccc(C(F)(F)F)c2)cc1C(=O)Nc1cnc(Nc2cccc(N)c2)nc1
IC50 [1]: 42.1 nM

Cc1ccc(NC(=O)c2cccc(-c3ccccc3)c2)cc1C(=O)Nc1cnc(Nc2cccc(N)c2)nc1
IC50 [1]: 660 nM

Cc1ccc(NC(=O)c2cccc(-c3ccc(F)nc3)c2)cc1C(=O)Nc1cnc(Nc2cccc(N)c2)nc1
IC50 [1]: 507 nM
